Measured values: ChEMBL document CHEMBL1142949, “Dicarba analogues of the cyclic enkephalin peptides H-Tyr-c[D-Cys-Gly-Phe-D(or L)-Cys]NH(2) retain high opioid activity” (J Med Chem, 2007)

Assays:
[1] = biological target: Kappa-type opioid receptor (Cavia porcellus, UniProt P41144); experiment: Displacement of [3H]U-69593 from guinea pig brain kappa opioid receptor
Brain [2] = experiment: Stability in rat brain membrane upto 24 hrs assessed as degradation by disulfide reductases; type: ADME, cell membranes
Brain [3] = experiment: Stability in rat brain membrane after 40 mins assessed as degradation by disulfide reductases; type: ADME, cell membranes
[4] = biological target: Delta-type opioid receptor (Rattus norvegicus, UniProt P33533); experiment: Displacement of [3H]DSLET from rat brain delta opioid receptor
Mu-type opioid receptor [5] = biological target: Mu-type opioid receptor (Rattus norvegicus, UniProt P33535); experiment: Displacement of [3H]DAMGO from rat brain mu opioid receptor
[6] = biological target: Delta-type opioid receptor (Mus musculus, UniProt P32300); experiment: Agonist activity at delta opioid receptor in mouse vas deferens; type: functional, tissue-based
Mu-type opioid receptor [7] = biological target: Mu-type opioid receptor (Cavia porcellus, UniProt P97266); experiment: Agonist activity at mu opioid receptor in guinea pig ileum; type: functional, tissue-based
Chain of Mu-type opioid receptor (Cavia porcellus, UniProt P97266) (P97266 whole entry): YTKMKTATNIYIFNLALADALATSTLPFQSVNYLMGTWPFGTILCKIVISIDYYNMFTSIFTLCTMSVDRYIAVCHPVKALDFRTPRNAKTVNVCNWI

Chain of Kappa-type opioid receptor (P41144 whole entry): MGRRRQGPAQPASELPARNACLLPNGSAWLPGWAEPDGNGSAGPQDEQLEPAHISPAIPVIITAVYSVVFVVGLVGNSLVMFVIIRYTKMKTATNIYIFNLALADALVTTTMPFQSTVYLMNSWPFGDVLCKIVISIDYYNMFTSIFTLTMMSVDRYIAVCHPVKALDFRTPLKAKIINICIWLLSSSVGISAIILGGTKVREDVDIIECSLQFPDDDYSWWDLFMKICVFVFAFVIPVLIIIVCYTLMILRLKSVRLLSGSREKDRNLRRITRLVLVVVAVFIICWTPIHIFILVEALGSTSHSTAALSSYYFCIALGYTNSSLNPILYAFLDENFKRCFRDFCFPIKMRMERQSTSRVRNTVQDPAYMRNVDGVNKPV
Chain of Mu-type opioid receptor (Rattus norvegicus, UniProt P33535) (P33535 whole entry): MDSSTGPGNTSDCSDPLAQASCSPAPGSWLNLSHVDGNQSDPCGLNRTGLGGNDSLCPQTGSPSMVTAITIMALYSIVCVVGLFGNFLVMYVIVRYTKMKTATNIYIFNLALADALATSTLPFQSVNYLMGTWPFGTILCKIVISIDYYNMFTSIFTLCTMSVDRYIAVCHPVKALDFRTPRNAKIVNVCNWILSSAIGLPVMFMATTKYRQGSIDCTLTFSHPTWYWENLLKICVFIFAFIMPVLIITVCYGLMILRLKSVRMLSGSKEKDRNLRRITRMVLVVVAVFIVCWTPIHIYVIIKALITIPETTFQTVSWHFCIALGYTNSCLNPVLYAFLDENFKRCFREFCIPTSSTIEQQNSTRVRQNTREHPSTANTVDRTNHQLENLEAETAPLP
Chain of Delta-type opioid receptor (Mus musculus, UniProt P32300) (P32300 whole entry): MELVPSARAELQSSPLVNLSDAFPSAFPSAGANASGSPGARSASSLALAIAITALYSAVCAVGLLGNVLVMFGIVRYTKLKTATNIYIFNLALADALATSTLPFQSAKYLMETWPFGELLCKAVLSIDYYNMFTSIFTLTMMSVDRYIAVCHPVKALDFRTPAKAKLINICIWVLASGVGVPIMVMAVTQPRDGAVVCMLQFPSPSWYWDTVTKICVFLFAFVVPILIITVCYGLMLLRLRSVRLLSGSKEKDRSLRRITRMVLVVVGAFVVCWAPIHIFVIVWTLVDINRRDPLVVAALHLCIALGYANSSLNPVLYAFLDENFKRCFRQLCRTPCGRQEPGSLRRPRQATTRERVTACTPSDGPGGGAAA
Chain of Delta-type opioid receptor (Rattus norvegicus, UniProt P33533) (P33533 whole entry): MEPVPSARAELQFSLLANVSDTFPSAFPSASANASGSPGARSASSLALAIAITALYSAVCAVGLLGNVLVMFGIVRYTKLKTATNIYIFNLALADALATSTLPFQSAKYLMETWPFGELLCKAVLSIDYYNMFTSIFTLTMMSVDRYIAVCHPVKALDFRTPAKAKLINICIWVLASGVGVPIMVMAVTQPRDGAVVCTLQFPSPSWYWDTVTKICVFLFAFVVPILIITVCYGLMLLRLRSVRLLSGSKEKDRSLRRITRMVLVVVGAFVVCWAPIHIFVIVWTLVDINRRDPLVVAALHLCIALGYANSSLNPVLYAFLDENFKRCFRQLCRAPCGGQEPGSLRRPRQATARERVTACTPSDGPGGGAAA

With `NC(=O)[C@@H]1CSSC[C@@H](NC(=O)[C@@H](N)Cc2ccc(O)cc2)C(=O)NCC(=O)N[C@@H](Cc2ccccc2)C(=O)N1` the Ki [1] was 40.1 nM, the Stability (Brain [2]) was “Stable” and the Activity (Brain [3]) was “Not Active”.

Work on `NC(=O)[C@@H]1C/C=C\C[C@@H](NC(=O)[C@@H](N)Cc2ccc(O)cc2)C(=O)NCC(=O)N[C@@H](Cc2ccccc2)C(=O)N1` yielded a Ki [4] of 6.55 nM, a Ki (Mu-type opioid receptor [5]) of 2.4 nM and a Ki [1] of 200 nM. For the same compound, the IC50 [6] was 0.496 nM, the IC50 (Mu-type opioid receptor [7]) was 1.81 nM and the Activity (Brain [3]) was “Not Active”.

`NC(=O)[C@@H]1C/C=C/C[C@@H](NC(=O)[C@@H](N)Cc2ccc(O)cc2)C(=O)NCC(=O)N[C@@H](Cc2ccccc2)C(=O)N1` showed a Ki [4] of 1.25 nM, a Ki (Mu-type opioid receptor [5]) of 0.616 nM and a Ki [1] of 57.6 nM. For the same compound, the IC50 [6] was 0.275 nM, the IC50 (Mu-type opioid receptor [7]) was 0.898 nM and the Activity (Brain [3]) was “Not Active”.

Compound `NC(=O)[C@H]1C/C=C/C[C@@H](NC(=O)[C@@H](N)Cc2ccc(O)cc2)C(=O)NCC(=O)N[C@@H](Cc2ccccc2)C(=O)N1` has a Ki [4] of 1.92 nM, a Ki (Mu-type opioid receptor [5]) of 1.05 nM and a Ki [1] of 30.4 nM. For the same compound, the IC50 [6] was 4.38 nM and the IC50 (Mu-type opioid receptor [7]) was 5.63 nM.

Compound `NC(=O)[C@@H]1CCCC[C@@H](NC(=O)[C@@H](N)Cc2ccc(O)cc2)C(=O)NCC(=O)N[C@@H](Cc2ccccc2)C(=O)N1` has a Ki [4] of 5.87 nM, a Ki (Mu-type opioid receptor [5]) of 2.34 nM and a Ki [1] of 309 nM. The IC50 [6] was 3.19 nM, the IC50 (Mu-type opioid receptor [7]) was 1.02 nM and the Activity (Brain [3]) was “Not Active”.

With `NC(=O)[C@H]1CCCC[C@@H](NC(=O)[C@@H](N)Cc2ccc(O)cc2)C(=O)NCC(=O)N[C@@H](Cc2ccccc2)C(=O)N1` the Ki [4] was 3.34 nM, the Ki (Mu-type opioid receptor [5]) was 1.17 nM and the Ki [1] was 71.5 nM. For the same compound, the IC50 [6] was 3.64 nM and the IC50 (Mu-type opioid receptor [7]) was 11.2 nM.

With `NC(=O)[C@H]1C/C=C\C[C@@H](NC(=O)[C@@H](N)Cc2ccc(O)cc2)C(=O)NCC(=O)N[C@@H](Cc2ccccc2)C(=O)N1` the Ki [4] was 7.04 nM, the Ki (Mu-type opioid receptor [5]) was 2.27 nM and the Ki [1] was 498 nM. It also gave an IC50 [6] of 9.91 nM and an IC50 (Mu-type opioid receptor [7]) of 11.9 nM.
